Results as given in US20080280879A1, “SUBSTITUTED HETEROCYCLIC DERIVATIVES AND THEIR PHARMACEUTICAL USE AND COMPOSITIONS” (priority 2007, published 2008).
In brackets after ≈: the same amount, converted by molar mass. Several values for one entry are separate records, joined by “and”; a condition that tells them apart may be missing. Identical values can stand only once.

Experiments:
Assay type in all cases: cell-based, Staphylococcus aureus
Staph aureus 1146 [1] = assay: MIC, microtiter broth dilution (CLSI M7-A7), Assay 1, Table 12 column B, no serum; details: for MIC, column B: Staph aureus 1146, Assay 1, no serum
Method in brief: (§1)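 Testing followed the CLSI M7-A7 dilution standard in microtiter trays, with serum conditions using Mueller-Hinton Broth plus 50% pooled inactivated human serum. Values are the lowest concentrations with no macroscopically visible growth.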

Staph aureus 1146 [2] = assay: MIC in Mueller-Hinton Broth with 50% pooled inactivated human serum, Assay 1, Table 12; details: for MIC, column C: Staph aureus 1146, Assay 1, 50% human serum
Method in brief: as §1

Staph aureus 2811 = assay: MIC, microtiter broth dilution (CLSI M7-A7), Assay 1, Table 12 column D, no serum; details: for MIC, column D: Staph aureus 2811, Assay 1, no serum
Method in brief: as §1

Staph aureus 1031 [3] = assay: MIC, microtiter broth dilution (CLSI M7-A7), Assay 2, Table 12 column F, no serum; details: for MIC, column F: Staph aureus 1031, Assay 2, no serum; for MIC: Staphylococcus aureus, 1031, Staph aureus 1031, Assay 2, no serum
Description: (§2) The assays described herein include a panel of bacterial isolates of Staphylococcus aureus. Assay 1 comprises the strains noted in Columns A through E, and Assay 2 comprises the strains noted in Columns F through H. The assays are performed in microtiter trays according to Methods for Dilution Antimicrobial Susceptibility Tests for Bacteria that Grow Aerobically; Approved Standard-7th edition (M7-A7) and interpreted according to the Performance Standards for Antimicrobial Susceptibility Testing; 16th Informational Supplement (M100-S16) published by Clinical Laboratory Standards Institute (CLSI). The antibacterial activity is presented in the form of a minimum inhibitory concentration (MIC) value in μg/ml format. The MIC value represents the lowest concentration of drug measured which prevented macroscopically visible growth under the conditions and specific doses tested. The compounds were initially dissolved in DMSO as 30 mM stocks and diluted accordingly to adjust to a concentration of 10 mg/ml or the compounds were dissolved in DMSO at a concentration of 10 mg/ml. For assessment of activity in the presence of human serum, S. aureus 1146 and S. aureus 1031 were inoculated into Mueller-Hinton Broth with 50% pooled inactivated human serum. In some cases, compounds were tested more than once in a particular assay. Where noted, the MIC value shown in Table 12 represents the geometric mean of the data from multiple runs.
(§3) It should be understood that the data in columns A-H represents MIC data in μg/ml and the notation “<=” means ‘less than or equal to’.

Staph aureus 1031 [4] = assay: MIC in Mueller-Hinton Broth with 50% pooled inactivated human serum, Assay 2, Table 12 column G; details: for MIC, column G: Staph aureus 1031, Assay 2, 50% human serum; for MIC: Staphylococcus aureus, 1031, Staph aureus 1031, Assay 2, 50% human serum
Description: as §2, §3

Staph aureus 2810 = assay: MIC, microtiter broth dilution (CLSI M7-A7), Assay 2, Table 12 column H, no serum; details: for MIC, column H: Staph aureus 2810, Assay 2, no serum; for MIC: Staphylococcus aureus, 2810, Staph aureus 2810, Assay 2, no serum
Description: as §2, §3

Staph aureus 1095 MRSA = assay: MIC, microtiter broth dilution (CLSI M7-A7), Assay 1, Table 12 column A, no serum; details: Assay 1, no serum; for MIC: Staphylococcus aureus, MRSA
Method in brief: as §1

Staph aureus 2812 = assay: MIC, microtiter broth dilution (CLSI M7-A7), Assay 1, Table 12 column E, no serum; details: for MIC, column E: Staph aureus 2812, Assay 1, no serum; for MIC: Staphylococcus aureus, 2812, Staph aureus 2812, Assay 1, no serum
Method in brief: as §1

Row | Molecule | MIC, column B (Staph aureus 1146 [1]) | MIC, column C (Staph aureus 1146 [2]) | MIC, column D (Staph aureus 2811) | MIC, column F (Staph aureus 1031 [3]) | MIC, column H (Staph aureus 2810) | MIC (Staph aureus 1031 [3]) [µg/mL] | MIC (Staph aureus 1031 [4]) [µg/mL] | MIC (Staph aureus 2810) [µg/mL] | further results
1 | 4-{[2-(3-chloro-6-methoxyquinolin-4-yl)ethyl]mino}-1-(3-phenylcyclobutyl) azepane-4-carboxylic acid [Example 152] | 0.125 µg/mL | 1 µg/mL and 2 µg/mL | <=.0625 μg/ml | <=.0625 μg/ml | 0.125 µg/mL | – | – | – | MIC, column G (Staph aureus 1031 [4]): 2 µg/mL
2 | COc1ccc2nccc(C(O)CC[C@@H]3CCN(C4CC(c5ccccc5)C4)C[C@@H]3C(=O)O)c2c1 (single isomer, unassigned) [Example 3] | <=.1768 μg/ml | 1.7818 µg/mL (≈ 3.75 µM) | <=.25 μg/ml | 0.5 µg/mL (≈ 1.05 µM) | 0.5 µg/mL (≈ 1.05 µM) | – | – | – | MIC, column A (Staph aureus 1095 MRSA): 0.25 µg/mL (≈ 0.527 µM); MIC, column E (Staph aureus 2812): 0.25 µg/mL (≈ 0.527 µM); MIC, column G (Staph aureus 1031 [4]): 4 µg/mL (≈ 8.43 µM)
3 | COC(=O)[C@H]1CN(CC2Cc3ccccc3C2)CC[C@H]1CCC(O)c1ccnc2ccc(OC)cc12 (stereo partly drawn) [Example 82, (3R,4R)-methyl 1-((2,3-dihydro-1H-inden-2-yl)methyl)-4-(3-hydroxy-3-(6-methoxyquinolin-4-yl)propyl)piperidine-3-carboxylate] | – | – | – | – | – | 8 (≈ 16.4 µM) | 32 (≈ 65.5 µM) | 16 (≈ 32.7 µM) | –
4 | COC(=O)C1(NC[C@H](O)c2ccnc3ccc(OC)nc23)CCCN(C2CC(c3ccccc3)C2)CC1 (stereo partly drawn) [Example 160, methyl 4-((R)-2-hydroxy-2-(6-methoxy-1,5-naphthyridin-4-yl)ethylamino)-1-(3-phenylcyclobutyl)azepane-4-carboxylate] | – | – | – | – | – | 2 (≈ 3.96 µM) | 4 (≈ 7.93 µM) | 2 (≈ 3.96 µM) | –
5 | 4-{[2-(3-chloro-6-methoxyquinolin-4-yl)ethyl]amino}-1-[(2-phenylcyclopropyl)ethyl]zepane-4-carboxylic acid [Example 151] | 4 µg/mL | 32 µg/mL | 2 µg/mL | 2 µg/mL | 2 µg/mL | – | – | – | MIC, column A (Staph aureus 1095 MRSA): 8 µg/mL; MIC, column E (Staph aureus 2812): 4 µg/mL; MIC, column G (Staph aureus 1031 [4]): 64 µg/mL
6 | COc1ccc2nccc(C(O)CC[C@@H]3CCN(CC4CCc5nc(-c6ccccc6)ncc5C4)C[C@@H]3C(=O)O)c2c1 (stereo partly drawn) [Example 118, (3R,4R)-4-[3-hydroxy-3-(6-methoxyquinolin-4-yl)propyl]-1-[(2-phenyl-5,6,7,8-tetrahydroquinazolin-6-yl)methyl]piperidine-3-carboxylic acid] | – | – | – | – | – | > 64 | > 64 | > 64 | –
7 | COc1ccc2nccc(C(O)CC[C@@H]3CCN(CC4(O)Cc5ccccc5C4)C[C@@H]3C(=O)O)c2c1 (stereo partly drawn) [Example 84, (3R,4R)-1-((2-hydroxy-2,3-dihydro-1H-inden-2-yl)methyl)-4-(3-hydroxy-3-(6-methoxyquinolin-4-yl)propyl)piperidine-3-carboxylic acid] | – | – | – | – | – | > 64 | > 64 | > 64 | –
8 | COc1ccc2nccc([C@@H](O)CNC3(C(=O)O)CCCN(C4CC(c5ccccc5)C4)CC3)c2n1 (stereo partly drawn) [Example 159, 4-{[(2R)-2-hydroxy-2-(6-methoxy-1,5-naphthyridin-4-yl)ethyl]amino}1-(3-phenylcyclobutyl)azepane-4-carboxylic acid] | – | – | – | – | – | 4 (≈ 8.15 µM) | 16 (≈ 32.6 µM) | 4 (≈ 8.15 µM) | –
9 | COc1ccc2nccc(C(O)CC[C@@H]3CCN(CC4Cc5ccccc5C4)C[C@@H]3C(=O)O)c2c1 (stereo partly drawn) [Example 83, (3R,4R)-1-((2,3-dihydro-1H-inden-2-yl)methyl)-4-(3-hydroxy-3-(6-methoxyquinolin-4-yl)propyl)piperidine-3-carboxylic acid] | – | – | – | – | – | 8 (≈ 16.9 µM) | 64 (≈ 135 µM) | 8 (≈ 16.9 µM) | –
10 | COc1ccc2nccc(C(O)CC[C@@H]3CCN(C4Cc5cccc(Br)c5C4)C[C@@H]3C(=O)O)c2c1 (stereo partly drawn) [Example 81, (3R,4R)-1-(4-bromo-2,3-dihydro-1H-inden-2-yl)-4-(3-hydroxy-3-(6-methoxyquinolin-4-yl)propyl)piperidine-3-carboxylic acid] | – | – | – | – | – | 4 (≈ 7.41 µM) | > 64 | 4 (≈ 7.41 µM) | –
11 | COc1ccc2nccc(C(O)CC[C@@H]3CCN(C[C@@H]4C[C@H]4c4ccccc4)C[C@@H]3C(=O)O)c2c1 (stereo partly drawn) [Example 85, (3R,4R)-4-[3-hydroxy-3-(6-methoxyquinolin-4-yl)propyl]-1-{[(tans)-2-phenylcyclopropyl]methyl}piperidine-3-carboxylic acid] | 1.4142 µg/mL (≈ 2.98 µM) | 5.6568 µg/mL (≈ 11.9 µM) | 1.4142 µg/mL (≈ 2.98 µM) | 2 µg/mL (≈ 4.21 µM) | 2 µg/mL (≈ 4.21 µM) | – | – | – | MIC, column A (Staph aureus 1095 MRSA): 4 µg/mL (≈ 8.43 µM); MIC, column E (Staph aureus 2812): 2 µg/mL (≈ 4.21 µM); MIC, column G (Staph aureus 1031 [4]): 4 µg/mL (≈ 8.43 µM)
12 | COc1ccc2nccc(C(O)CC[C@@H]3CCN(C4CC(c5ccccc5)C4)C[C@@H]3C(=O)O)c2c1 (single isomer, unassigned) [Example 2] | <=.0625 μg/ml | 0.4629 µg/mL (≈ 0.975 µM) | <=.0884 μg/ml | 0.125 µg/mL (≈ 0.263 µM) | <=.0625 μg/ml | – | – | – | MIC (Staph aureus 1095 MRSA): 0.25 µg/mL (≈ 0.527 µM); MIC (Staph aureus 2812): 0.158 µg/mL (≈ 0.332 µM); MIC, column G (Staph aureus 1031 [4]): 0.5 µg/mL (≈ 1.05 µM)
13 | COC(=O)[C@H]1CN(C2Cc3ccccc3C2)CC[C@H]1CCC(O)c1ccnc2ccc(OC)cc12 (stereo partly drawn) [Example 78, (3R,4R)-methyl 1-(2,3-dihydro-1H-inden-2-yl)-4-(3-hydroxy-3-(6-methoxyquinolin-4-yl)propyl)piperidine-3-carboxylate] | – | – | – | – | – | > 64 | > 64 | > 64 | –
14 | COc1ccc2nccc(C(O)CC[C@@H]3CCN(C4CC(c5ccccc5)C4)C[C@@H]3C(=O)O)c2c1 (single isomer, unassigned) [Example 4] | 1 µg/mL (≈ 2.11 µM) | 4 µg/mL (≈ 8.43 µM) | 1 µg/mL (≈ 2.11 µM) | 0.5 µg/mL (≈ 1.05 µM) | 0.5 µg/mL (≈ 1.05 µM) | – | 4 (≈ 8.43 µM) | – | MIC, column A (Staph aureus 1095 MRSA): 2 µg/mL (≈ 4.21 µM); MIC, column E (Staph aureus 2812): 1 µg/mL (≈ 2.11 µM)
15 | COC(=O)[C@H]1CN(C[C@@H]2C[C@H]2c2ccccc2)CC[C@H]1CCC(O)c1ccnc2ccc(OC)cc12 (mixture of isomers) [Example 5, methyl (3R,4R)-4-[3-hydroxy-3-(6-methoxyquinolin-4-yl)propyl]-1-{[(trans)-2-phenylcyclopropyl]methyl}piperidine-3-carboxylate] | – | – | – | – | – | 4 | 64 | 8 | MIC (Staph aureus 1095 MRSA): 2 µg/mL; MIC (Staph aureus 1146 [1]; Staphylococcus aureus, 1146, Staph aureus 1146, Assay 1, no serum): 4 µg/mL; MIC (Staph aureus 1146 [2]; Staphylococcus aureus, 1146, Staph aureus 1146, Assay 1, 50% human serum, read-out: MIC, column C): 32 µg/mL; MIC (Staph aureus 2811; Staphylococcus aureus, 2811, Staph aureus 2811, Assay 1, no serum): 8 µg/mL; MIC (Staph aureus 2812): 4 µg/mL
16 | COc1ccc2nccc(C(O)CC[C@@H]3CCN(CC4CCc5nc(C(C)C)ncc5C4)C[C@@H]3C(=O)O)c2c1 (stereo partly drawn) [Example 116, (3R,4R)-4-[3-hydroxy-3-(6-methoxyquinolin-4-yl)propyl]-1-[(2-isopropyl-5,6,7,8-tetrahydroquinazolin-6-yl)methyl]piperidine-3-carboxylic acid] | – | – | – | – | – | > 64 | > 64 | > 64 | –
17 | COC(=O)[C@H]1CN(C2CN(c3ccccn3)C2)CC[C@H]1CCC(O)c1ccnc2ccc(OC)cc12 (stereo partly drawn) [Example 124, methyl (3R,4R)-4-[3-hydroxy-3-(6-methoxyquinolin-4-yl)propyl]-1-(1-pyridin-2-ylazetidin-3-yl)piperidine-3-carboxylate] | – | – | – | – | – | > 64 | > 64 | > 64 | –
18 | COc1ccc2nccc(C(O)CC[C@@H]3CCN(CC4CCc5nc(-c6cnccn6)ncc5C4)C[C@@H]3C(=O)O)c2c1 (stereo partly drawn) [Example 119, (3R,4R)-4-[3-hydroxy-3-(6-methoxyquinolin-4-yl)propyl]-1-[(2-pyrazin-2-yl-5,6,7,8-tetrahydroquinazolin-6-yl)methyl]piperidine-3-carboxylic acid] | – | – | – | – | – | > 64 | > 64 | > 64 | –
